How the values were obtained:
Male Sprague Dawley rats = test: Reversal of colorectal distension-induced pain behaviors; format: in vivo, rat; conditions: 90 minutes post dosing, mean ± SEM
Description: Visceral pain in rats can be induced by distension of the colorectal cavity and pain monitored by accessing the reflex contraction of abdominal muscles. Measurement of abdominal muscle reflex contractions with pain caused by colorectal distension in the rat is performed substantially as described by Fioramonti et al. Neurogastroenterology and Motility (2003) 15, 363-369 and Urban et al. J. of Pharmacology and Exp. Ther. (1999) 290, 207-213. Male Sprague Dawley rats are surgically implanted with electromyographic (EMG) electrodes in the oblique abdominal muscle and allowed to recover for one week, during which animals are acclimated to handling and partial restraint to minimize effects of stress. Baseline EMG measurements are collected and recorded after the insertion into the rectum (8 cm) of a lubricated latex balloon attached to a pressure monitor/regulator to step the pressure between 20, 40, and 60 mm Hg for a 20 second duration with a 3 minute resting period between trials. A set of three exposures at each pressure is recorded before stepping the pressure up to the next level. Data are collected as the area under the curve for EMG reading (volts per second) during the pressure stimulations, and averaged over the three trials. A test compound (prodrug) is orally dosed within a range of 1.5 to 17 mg/kg 90 minutes prior to the beginning of the colorectal distension. Statistical significance is defined as a p value <0.05 in an analysis of covariance followed by a Dunnett's post hoc test. Table 3 below provides the statistically significant results for Example 10 run substantially as above.

rats [1] = test: Reversal of CFA-induced mechanical hyperalgesia (Randall Sellito test); format: in vivo, rat; conditions: mean ± SEM, p<0.05 vs vehicle
Description: Induction of local inflammation in the rat hind paw will cause a persistent mechanical hyperalgesia that can be measured by determining the threshold to pressure stimuli to give a painful response. The method for complete Freund's adjuvant (CFA) induced mechanical hyperalgesia in rats is largely described in Iadarola et al. Brain Res. (1988) 455, 205-212. Rats are placed under isoflurane anesthesia while the right paw is injected with 50 μl of CFA (Sigma C5881, 1 mg/ml mycobacterium extract in 85% paraffin oil, 15% mannide monooleate) intraplantar. Animals are allowed to recover in soft bedding cages and mechanical hyperalgesia changes measured 24 hours post-CFA injection. Mechanical hyperalgesia (Randall Sellito Test) is determined by gently restraining the rat and placing the paw between the plinth and pusher (Ugo Basile Analgesy-meter). The gram force when the animal withdraws the paw is recorded.
Rats are tested for baseline response prior to CFA injection. Post-CFA response is tested the next morning (about 24 hours post injection of CFA). Rats are randomized based on post-CFA response with any rat showing a score of >150 grams excluded from further testing. A test compound (prodrug) is orally dosed within a range of 1.5 to 15 mg/kg and mechanical threshold for paw withdrawal is measured at 1 and 2 hours post dosing. Statistical significance is defined as a p value <0.05 in an analysis of covariance followed by a Dunnett's post hoc test for each time point. Table 2 below provides the statistically significant results for Example 10 run substantially as above.

male Sprague-Dawley rats = test: Reversal of persistent pain induced by formalin injection; format: in vivo; conditions: po, 2 h, dosed two hours prior to intraplantar formalin, rat
rats [2] = test: Reversal of L5/L6 nerve ligation induced tactile allodynia; format: in vivo, rat; conditions: 15 mg/kg orally, n=8, ±SEM
Description: Unilateral ligation of nerves innervating the hind leg region will result in a chronic persistent pain manifested as tactile allodynia in rats. L5/L6 nerve ligation is performed (Kim et al. Pain (1992) 50, 355-363). Neuropathic injury is produced by tightly ligating the left L5 and L6 spinal nerves under gaseous anesthesia with a mixture of isoflurane (3% for induction and 2% for maintenance) and oxygen. After a minimum of 14 days after surgery, tactile allodynia is evaluated by measuring tactile sensitivity of the injured paw to von Frey filaments with incremental bending forces (0.3 to 15 g) (Chaplan et al. J. of Neuroscience Methods (1994) 53, 55-63). […] Baseline values are determined immediately prior to assessment of test compound. A test compound (prodrug) is orally dosed at 15 mg/kg and the tactile threshold for paw withdrawal is measured at 1, 2 and 4 hours post dosing. Data are expressed as response threshold in grams (g) and values are with standard errors of means (±SE mean) for each time point. Data are analyzed using an analysis of variance followed by a Dunnett's post hoc analysis and represent absolute change in pain threshold (Cmax=maximum Response Baseline) and expressed as Mean [log (maximum response)−log predose score)] (g).

With C[C@H](N)C(=O)N[C@@]1(C(=O)O)CC2(CC2)[C@H]2[C@H](C(=O)O)[C@H]21 [Example 10, (1S,2S,5R,6S)-2-[[(2S)-2-Aminopropanoyl]amino]spiro[bicyclo[3.1.0]hexane-4,1′-cyclopropane]-2,6-dicarboxylic acid dihydrate] the “AUC of EMG reading for abdominal muscle with 60 mmHg colorectal pressure” value (shortened to “AUC of EMG reading for abdominal muscle”) (Male Sprague Dawley rats; 1.5 mg/kg po, pre-dosing baseline 853 ± 142, vehicle 849 ± 65) was 618 ± 92 μV/sec, the “AUC of EMG reading for abdominal muscle” value (Male Sprague Dawley rats; 4.5 mg/kg po, pre-dosing baseline 887 ± 152, p<0.05 vs vehicle) was 531 ± 99 μV/sec and the “AUC of EMG reading for abdominal muscle” value (Male Sprague Dawley rats; 17 mg/kg po, pre-dosing baseline 773 ± 134, p<0.05 vs vehicle) was 266 ± 87 μV/sec. The “Paw withdrawal Threshold” value (rats [1]; 1.5 mg/kg po, one hour post dosing, group pre CFA 243 ± 5, 24 hours post CFA 113 ± 8) was 180 ± 14 grams, force, the “Paw withdrawal Threshold” value (rats [1]; 1.5 mg/kg po, two hours post dosing, group pre CFA 243 ± 5, 24 hours post CFA 113 ± 8) was 186 ± 19 grams, force and the “Paw withdrawal Threshold” value (rats [1]; 4.5 mg/kg po, one hour post dosing, group pre CFA 221 ± 10, 24 hours post CFA 114 ± 9) was 153 ± 20 grams, force. The “Paw withdrawal Threshold” value (rats [1]; 4.5 mg/kg po, two hours post dosing, group pre CFA 221 ± 10, 24 hours post CFA 114 ± 9) was 221 ± 20 grams, force, the “Paw withdrawal Threshold” value (rats [1]; 15 mg/kg po, one hour post dosing, group pre CFA 244 ± 4, 24 hours post CFA 108 ± 12, cut-off 250 grams) was 250 ± 0 grams, force and the “Paw withdrawal Threshold” value (rats [1]; 15 mg/kg po, two hours post dosing, group pre CFA 244 ± 4, 24 hours post CFA 108 ± 12) was 232 ± 15 grams, force. The ED50 (male Sprague-Dawley rats) was 4.8 mg/kg, the “mechanical threshold (von Frey, paw withdrawal)” value (shortened to “mechanical threshold”) (rats [2]; four hours post dosing, vehicle 2.35±0.62) was 8.63 ± 1.98 g and the “mechanical threshold” value (rats [2]; one hour post dosing, vehicle 1.50±0.60) was 9.06 ± 2.26 g. For the same compound, the “mechanical threshold” value (rats [2]; two hours post dosing, vehicle 1.34±0.75) was 12.31 ± 1.86 g.
